Here are results for 21 compounds from US12428406B2 (PMV Pharmaceuticals, Inc., priority 2019, dated 2025).

T1 sequence (P04637 94-312, change not shown): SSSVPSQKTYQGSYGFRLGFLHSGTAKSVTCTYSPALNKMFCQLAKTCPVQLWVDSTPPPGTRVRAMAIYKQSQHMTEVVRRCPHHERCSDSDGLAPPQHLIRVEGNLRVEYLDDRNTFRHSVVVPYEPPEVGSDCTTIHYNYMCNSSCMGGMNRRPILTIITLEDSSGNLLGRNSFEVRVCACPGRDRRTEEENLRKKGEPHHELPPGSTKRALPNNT

The assay has as its target T1, p53 Y220C (Homo sapiens, UniProt P04637, Y220C).
T1 construct: The recombinant protein was a truncation mutant containing only amino acids 94-312 of p53; made in house; host or cells: E. coli
Put plainly: In vitro DNA binding activity assay (HTRF / TR-FRET): stabilization of p53 Y220C and increase of its DNA binding activity. It is filed as biochemical. To be noted: recombinant His-tagged p53 Y220C DNA binding domain (aa 94-312), biotin-labeled consensus DNA, incubated at 27° C. or 29° C. for 60 min. The procedure, abridged: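 Test compounds, diluted 3-fold in DMSO from 4.5 mM stocks, were incubated with bacterially expressed His-tagged p53 Y220C at room temperature for 15 min, and after a further step for 20 min. DNA binding was detected by time-resolved FRET between APC and europium labels. SC150 marks the concentration increasing binding by 50%.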
Take `COc1cc(S(C)(=O)=O)ccc1NCC#Cc1cc2c(N[C@H]3CCOC[C@H]3OC)cccc2n1CC(F)(F)F` [Compound 1024A, 2-(3-((2-methoxy-4-(methylsulfonyl)phenyl)amino)prop-1-yn-1-yl)-N-((3S,4S)-3-methoxytetrahydro-2H-pyran-4-yl)-1-(2,2,2-trifluoroethyl)-1H-indol-4-amine]: the “SC150 (concentration of the compound required to increase the DNA binding activity by 50%)” value is “+ (+ = 0 μM ≤ SC150 < 0.05 μM)”.
In the case of `COc1cc(S(C)(=O)=O)ccc1NCC#Cc1cc2c(N[C@H]3CCOC[C@H]3F)cccc2n1CC(F)(F)F` [Compound 1025A, N-[(3S,4S)-3-fluorooxan-4-yl]-2-{3-[(4-methanesulfonyl-2-methoxyphenyl)amino]prop-1-yn-1-yl}-1-(2,2,2-trifluoroethyl)-1H-indol-4-amine], the “SC150 (concentration of the compound required to increase the DNA binding activity by 50%)” value is “+ (+ = 0 μM ≤ SC150 < 0.05 μM)”.
In the case of `COc1cc(S(C)(=O)=O)ccc1NCC#Cc1cc2c(N[C@@H]3CCOC[C@@H]3F)cccc2n1CC(F)(F)F` [Compound 1026A, N-[(3R,4R)-3-fluorooxan-4-yl]-2-{3-[(4-methanesulfonyl-2-methoxyphenyl)amino]prop-1-yn-1-yl}-1-(2,2,2-trifluoroethyl)-1H-indol-4-amine] it was “+ (+ = 0 μM ≤ SC150 < 0.05 μM)”; in that of `COc1cc(S(C)(=O)=O)ccc1NCC#Cc1cc2c(N[C@H]3C[C@@H](C)O[C@@H](C)C3)cccc2n1CC(F)(F)F` [Compound 1027A, 2-{3-[(4-methanesulfonyl-2-methoxyphenyl)amino]prop-1-yn-1-yl}-N-[(2R,4R,6S)-2,6-dimethyloxan-4-yl]-1-(2,2,2-trifluoroethyl)-1H-indol-4-amine], “++ (++ = 0.05 μM ≤ SC150 < 0.1 μM)”; in that of `COc1cc(S(C)(=O)=O)ccc1NCC#Cc1cc2c(N[C@@H]3C[C@@H](C)O[C@@H](C)C3)cccc2n1CC(F)(F)F` [Compound 1028A, 2-{3-[(4-methanesulfonyl-2-methoxyphenyl)amino]prop-1-yn-1-yl}-N-[(2R,4S,6S)-2,6-dimethyloxan-4-yl]-1-(2,2,2-trifluoroethyl)-1H-indol-4-amine], “+++ (+++ = 0.1 μM ≤ SC150 < 0.2 μM)”.
Regarding `COc1cc(C(N)=O)ccc1NCC#Cc1cc2c(N[C@H]3C[C@@H](C)O[C@@H](C)C3)cccc2n1CC(F)(F)F` [Compound 1029A, 3-methoxy-4-{[3-(4-{[(2R,4R,6S)-2,6-dimethyloxan-4-yl]amino}-1-(2,2,2-trifluoroethyl)-1H-indol-2-yl)prop-2-yn-1-yl]amino}benzamide], the “SC150 (concentration of the compound required to increase the DNA binding activity by 50%)” value is recorded as “+++ (+++ = 0.1 μM ≤ SC150 < 0.2 μM)”.
For `COc1cc(C(N)=O)ccc1NCC#Cc1cc2c(N[C@@H]3C[C@@H](C)O[C@@H](C)C3)cccc2n1CC(F)(F)F` [Compound 1030A, 3-methoxy-4-{[3-(4-{[(2R,4S,6S)-2,6-dimethyloxan-4-yl]amino}-1-(2,2,2-trifluoroethyl)-1H-indol-2-yl)prop-2-yn-1-yl]amino}benzamide], the “SC150 (concentration of the compound required to increase the DNA binding activity by 50%)” value was “++ (++ = 0.05 μM ≤ SC150 < 0.1 μM)”.
The value for `COc1cc(S(N)(=O)=O)ccc1NCC#Cc1cc2c(N[C@@H]3C[C@@H](C)O[C@@H](C)C3)cccc2n1CC(F)(F)F` [Compound 1031A, 3-methoxy-4-{[3-(4-{[(2R,4S,6S)-2,6-dimethyloxan-4-yl]amino}-1-(2,2,2-trifluoroethyl)-1H-indol-2-yl)prop-2-yn-1-yl]amino}benzene-1-sulfonamide] was “+ (+ = 0 μM ≤ SC150 < 0.05 μM)”; that for `COc1cc(S(N)(=O)=O)ccc1NCC#Cc1cc2c(N[C@H]3C[C@@H](C)O[C@@H](C)C3)cccc2n1CC(F)(F)F` [Compound 1032A, 3-methoxy-4-{[3-(4-{[(2R,4R,6S)-2,6-dimethyloxan-4-yl]amino}-1-(2,2,2-trifluoroethyl)-1H-indol-2-yl)prop-2-yn-1-yl]amino}benzene-1-sulfonamide] was “++ (++ = 0.05 μM ≤ SC150 < 0.1 μM)”.
For the compound `COc1cc(C(C)(C)C#N)ncc1NCC#Cc1cc2c(NC3CCS(=O)(=O)CC3)cccc2n1CC(F)(F)F` [Compound 1034A, 2-{5-[(3-{4-[(1,1-dioxo-1λ^6-thian-4-yl)amino]-1-(2,2,2-trifluoroethyl)-1H-indol-2-yl}prop-2-yn-1-yl)amino]-4-methoxypyridin-2-yl}-2-methylpropanenitrile], the “SC150 (concentration of the compound required to increase the DNA binding activity by 50%)” value is on record as “+ (+ = 0 μM ≤ SC150 < 0.05 μM)”.
In the case of `CS(=O)(=O)c1ccc(NCC#Cc2cc3c(NC4CCS(=O)(=O)CC4)cccc3n2CC(F)(F)F)c(OC(F)(F)F)c1` [Compound 1035A, 4-{[2-(3-{[4-methanesulfonyl-2-(trifluoromethoxy)phenyl]amino}prop-1-yn-1-yl)-1-(2,2,2-trifluoroethyl)-1H-indol-4-yl]amino}-1λ^6-thiane-1,1-dione] it was “+ (+ = 0 μM ≤ SC150 < 0.05 μM)”; in that of `COc1cc(S(=O)(=O)N2CCOCC2)ccc1NCC#Cc1cc2c(NC3CCS(=O)(=O)CC3)cccc2n1CC(F)(F)F` [Compound 1036A, 4-{[2-(3-{[2-methoxy-4-(morpholine-4-sulfonyl)phenyl]amino}prop-1-yn-1-yl)-1-(2,2,2-trifluoroethyl)-1H-indol-4-yl]amino}-1λ^6-thiane-1,1-dione], “+ (+ = 0 μM ≤ SC150 < 0.05 μM)”.
The value for `CN(C)CCOc1cc(S(C)(=O)=O)ccc1NCC#Cc1cc2c(NC3CCS(=O)(=O)CC3)cccc2n1CC(F)(F)F` [Compound 1037A, 4-({2-[3-({2-[2-(dimethylamino)ethoxy]-4-methanesulfonylphenyl}amino)prop-1-yn-1-yl]-1-(2,2,2-trifluoroethyl)-1H-indol-4-yl}amino)-1λ^6-thiane-1,1-dione] was “++ (++ = 0.05 μM ≤ SC150 < 0.1 μM)”; that for `COc1cc(S(=O)(=O)N(C)CCO)ccc1NCC#Cc1cc2c(NC3CCS(=O)(=O)CC3)cccc2n1CC(F)(F)F` [Compound 1038A, 4-[(3-{4-[(1,1-dioxo-1λ^6-thian-4-yl)amino]-1-(2,2,2-trifluoroethyl)-1H-indol-2-yl}prop-2-yn-1-yl)amino]-N-(2-hydroxyethyl)-3-methoxy-N-methylbenzene-1-sulfonamide] was “+ (+ = 0 μM ≤ SC150 < 0.05 μM)”.
On to `COc1cc(S(=O)(=O)Nc2ccon2)ccc1NCC#Cc1cc2c(NC3CCS(=O)(=O)CC3)cccc2n1CC(F)(F)F` [Compound 1039A, 4-[(3-{4-[(1,1-dioxo-1λ^6-thian-4-yl)amino]-1-(2,2,2-trifluoroethyl)-1H-indol-2-yl}prop-2-yn-1-yl)amino]-3-methoxy-N-(1,2-oxazol-3-yl)benzene-1-sulfonamide], for which the “SC150 (concentration of the compound required to increase the DNA binding activity by 50%)” value is on record as “+ (+ = 0 μM ≤ SC150 < 0.05 μM)”.
The value for `COc1cc(S(=O)(=O)Nc2cc(C)on2)ccc1NCC#Cc1cc2c(NC3CCS(=O)(=O)CC3)cccc2n1CC(F)(F)F` [Compound 1040A, 4-[(3-{4-[(1,1-dioxo-1λ^6-thian-4-yl)amino]-1-(2,2,2-trifluoroethyl)-1H-indol-2-yl}prop-2-yn-1-yl)amino]-3-methoxy-N-(5-methyl-1,2-oxazol-3-yl)benzene-1-sulfonamide] was “+ (+ = 0 μM ≤ SC150 < 0.05 μM)”; that for `COc1cc(S(=O)(=O)NC2CCOCC2)ccc1NCC#Cc1cc2c(NC3CCS(=O)(=O)CC3)cccc2n1CC(F)(F)F` [Compound 1041A, 4-[(3-{4-[(1,1-dioxo-1λ^6-thian-4-yl)amino]-1-(2,2,2-trifluoroethyl)-1H-indol-2-yl}prop-2-yn-1-yl)amino]-3-methoxy-N-(oxan-4-yl)benzene-1-sulfonamide] was “+ (+ = 0 μM ≤ SC150 < 0.05 μM)”; that for `COc1cc(S(=O)(=O)NCC(O)CO)ccc1NCC#Cc1cc2c(NC3CCS(=O)(=O)CC3)cccc2n1CC(F)(F)F` (stereo not drawn) [Compound 1042A, N-(2,3-dihydroxypropyl)-4-[(3-{4-[(1,1-dioxo-1λ^6-thian-4-yl)amino]-1-(2,2,2-trifluoroethyl)-1 H-indol-2-yl}prop-2-yn-1-yl)amino]-3-methoxybenzene-1-sulfonamide] was “+ (+ = 0 μM ≤ SC150 < 0.05 μM)”.
The value for `COc1cc(S(=O)(=O)N(C)CCN(C)C)ccc1NCC#Cc1cc2c(NC3CCS(=O)(=O)CC3)cccc2n1CC(F)(F)F` [Compound 1043A, N-[2-(dimethylamino)ethyl]-4-[(3-{4-[(1,1-dioxo-1λ^6-thian-4-yl)amino]-1-(2,2,2-trifluoroethyl)-1H-indol-2-yl}prop-2-yn-1-yl)amino]-3-methoxy-N-methylbenzene-1-sulfonamide] was “+ (+ = 0 μM ≤ SC150 < 0.05 μM)”.
The value for `COc1cc(S(=O)(=O)N(C)C)ccc1NCC#Cc1cc2c(NC3CCS(=O)(=O)CC3)cccc2n1CC(F)(F)F` [Compound 1044A, 4-[(3-{4-[(1,1-dioxo-1λ^6-thian-4-yl)amino]-1-(2,2,2-trifluoroethyl)-1H-indol-2-yl}prop-2-yn-1-yl)amino]-3-methoxy-N,N-dimethylbenzene-1-sulfonamide] was “+ (+ = 0 μM ≤ SC150 < 0.05 μM)”; that for `COc1cc(S(=O)(=O)N2CCN(C(C)=O)CC2)ccc1NCC#Cc1cc2c(NC3CCS(=O)(=O)CC3)cccc2n1CC(F)(F)F` [Compound 1045A, 4-({2-[3-({4-[(4-acetylpiperazin-1-yl)sulfonyl]-2-methoxyphenyl}amino)prop-1-yn-1-yl]-1-(2,2,2-trifluoroethyl)-1H-indol-4-yl}amino)-1λ^6-thiane-1,1-dione] was “+ (+ = 0 μM ≤ SC150 < 0.05 μM)”.
